In ChEMBL document CHEMBL1201862, “PubChem BioAssay data set” (2004):
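Cells were grown in 96-well plates and exposed to each compound for 48 hours at five concentrations; endpoints were interpolated linearly between bracketing concentrations, or set to the highest concentration if not reached. Abbreviation: GI50, concentration required for 50% inhibition of growth.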 The source made the active and inactive calls. Cut-off read from the data, not from the text of the source: active = GI50 up to about 1.1 µM and inactive = higher.

Experiments:
Test in all cases: growth of human tumour cells (NCI), 48 h
ACHN = test system: ACHN
BT-549 = test system: BT-549
COLO 205 = test system: COLO 205
HCT-15 = test system: HCT-15
HOP-92 = test system: HOP-92
KM12 = test system: KM12
LOX IMVI = test system: LOX IMVI
M14 = test system: M14
MDA-MB-435 = test system: MDA-MB-435
NCI-H460 = test system: NCI-H460
OVCAR-8 = test system: OVCAR-8
PC-3 = test system: PC-3
SK-MEL-28 = test system: SK-MEL-28
SK-MEL-2 = test system: SK-MEL-2
SK-OV-3 = test system: SK-OV-3
T47D = test system: T47D
U-251 = test system: U-251
HOP-62 = test system: HOP-62
NCI-H522 = test system: NCI-H522

Compound | GI50 (ACHN) | GI50 (BT-549) | GI50 (COLO 205) | GI50 (HCT-15) | GI50 (HOP-92) | GI50 (KM12) | GI50 (LOX IMVI) | GI50 (M14) | GI50 (MDA-MB-435) | GI50 (NCI-H460) | GI50 (OVCAR-8) | GI50 (PC-3) | GI50 (SK-MEL-28) | GI50 (SK-MEL-2) | GI50 (SK-OV-3) | GI50 (T47D) | GI50 (U-251) | GI50 (HOP-62) | GI50 (NCI-H522)
Cc1ccc(NC(=O)/C(=N\NC(N)=O)c2c(O)c3ccccc3[nH]c2=O)cc1 | > 100 µM (inactive) | > 100 µM (inactive) | > 100 µM (inactive) | > 100 µM | > 100 µM (inactive) | > 100 µM (inactive) | > 100 µM (inactive) | > 100 µM (inactive) | > 100 µM (inactive) | > 100 µM (inactive) | > 100 µM (inactive) | > 100 µM (inactive) | > 100 µM (inactive) | > 100 µM (inactive) | > 100 µM (inactive) | > 100 µM (inactive) | > 100 µM (inactive) |  | 
Cc1ccc([N+](=O)[O-])c2c(NCCC[N+](C)(C)[O-])ccnc12 | 61.5 µM (inactive) |  | 34 µM (inactive) | > 10 µM | 50.9 µM (inactive) | 40.1 µM (inactive) | 49.5 µM (inactive) | 40.3 µM (inactive) | > 100 µM (inactive) | 21.3 µM (inactive) | 58.9 µM (inactive) | 50.8 µM (inactive) | > 100 µM (inactive) | 52.6 µM (inactive) | 52 µM (inactive) | 35.1 µM (inactive) | 83.6 µM (inactive) | 29.3 µM (inactive) | 15 µM (inactive)
Nc1ccc(C23CC4CC(C2)CC(c2ccc(N)cc2)(C4)C3)cc1 | 41.1 µM (inactive) | 42.9 µM (inactive) | 2.3 µM (inactive) | 14.5 µM | 41.8 µM (inactive) | > 100 µM (inactive) | > 100 µM (inactive) | 37.2 µM (inactive) | 0.164 µM (active) | 37.2 µM (inactive) | 85.1 µM (inactive) |  | 15 µM (inactive) | 35.9 µM (inactive) |  |  | 14.3 µM (inactive) | 60 µM (inactive) | 
COC(=O)[C@@H](NS(=O)(=O)CC12CCC(CC1)C2(C)C)C(C)(C)C | > 100 µM (inactive) | > 100 µM (inactive) | > 100 µM (inactive) | > 100 µM | > 100 µM (inactive) | > 100 µM (inactive) | > 100 µM (inactive) | > 100 µM (inactive) | > 100 µM (inactive) | > 100 µM (inactive) | > 100 µM (inactive) |  | > 100 µM (inactive) | > 100 µM (inactive) | > 100 µM (inactive) | > 100 µM (inactive) | > 100 µM (inactive) |  | > 100 µM (inactive)
CCOC(=O)N/N=C(/N)c1cccc(Br)c1 | > 100 µM (inactive) | > 100 µM (inactive) | > 100 µM (inactive) | > 100 µM |  | > 100 µM (inactive) | > 100 µM (inactive) | > 100 µM (inactive) |  | > 100 µM (inactive) | > 100 µM (inactive) | > 100 µM (inactive) |  | > 100 µM (inactive) | > 100 µM (inactive) | > 100 µM (inactive) |  | > 100 µM (inactive) | > 100 µM (inactive)
COc1ccc(OC)c2c(Nc3ccc(S(=O)(=O)O)c4cc(S(=O)(=O)O)cc(S(=O)(=O)O)c34)cc(C)nc12 | > 100 µM (inactive) | > 100 µM (inactive) | > 100 µM (inactive) | > 100 µM |  | > 100 µM (inactive) | > 100 µM (inactive) | > 100 µM (inactive) | > 100 µM (inactive) | > 100 µM (inactive) | > 100 µM (inactive) | > 100 µM (inactive) | > 100 µM (inactive) | > 100 µM (inactive) | > 100 µM (inactive) | > 100 µM (inactive) | > 100 µM (inactive) | > 100 µM (inactive) | > 100 µM (inactive)
O=C1[C@@H]2C[C@@H](O)CN2C(=O)c2ccccc2N1CCCO | > 100 µM (inactive) |  |  | > 100 µM | > 100 µM (inactive) | > 100 µM (inactive) | > 100 µM (inactive) | > 100 µM (inactive) | > 100 µM (inactive) | > 100 µM (inactive) | > 100 µM (inactive) | > 100 µM (inactive) | > 100 µM (inactive) | > 100 µM (inactive) | > 100 µM (inactive) | > 100 µM (inactive) | > 100 µM (inactive) | > 100 µM (inactive) | > 100 µM (inactive)
CCN(CC)Cc1ccc(C(=S)Nc2ccc(C)cc2)s1 | 16 µM (inactive) | 20.3 µM (inactive) | 16 µM (inactive) | 16.4 µM |  | 15.3 µM (inactive) | 16 µM (inactive) | 15.1 µM (inactive) | 12.2 µM (inactive) | 15.4 µM (inactive) | 14.8 µM (inactive) | 14.3 µM (inactive) | 15 µM (inactive) | 15.7 µM (inactive) | 15.6 µM (inactive) | 15.9 µM (inactive) | 14.7 µM (inactive) | 17.5 µM (inactive) | 14.6 µM (inactive)
COC(=O)/C=C(\C)CC/C=C(\C)CCC1OC1(C)C (stereo not drawn) | 13 µM (inactive) | 11.5 µM (inactive) | 15.5 µM (inactive) | 11.8 µM | 11.9 µM (inactive) | 9.48 µM (inactive) | 2.53 µM (inactive) | 12.6 µM (inactive) |  | 13.2 µM (inactive) | 12.9 µM (inactive) | 8.36 µM (inactive) | 12.3 µM (inactive) | 10.9 µM (inactive) | 23.7 µM (inactive) |  | 11.8 µM (inactive) | 15.8 µM (inactive) | 
CC1=NC(=Cc2cccc(Cl)c2)C(=O)N1n1c(-c2ccccc2)nc2ccccc2c1=O | 24.5 µM (inactive) | 34.7 µM (inactive) | 36.1 µM (inactive) | 39.3 µM |  | 31.6 µM (inactive) | 25.9 µM (inactive) | 31.4 µM (inactive) | 41 µM (inactive) | 19.3 µM (inactive) | 43.4 µM (inactive) | 31.3 µM (inactive) | > 10 µM (inactive) |  | 37.8 µM (inactive) | 19.8 µM (inactive) |  | 24.5 µM (inactive) | 17.5 µM (inactive)
CN(C)C(=O)Oc1ccc(C(=S)Nc2ccccc2)cc1Br | 30.5 µM (inactive) | 31.3 µM (inactive) | 24.2 µM (inactive) | 28.9 µM |  | 21.7 µM (inactive) | 20.9 µM (inactive) | 18.6 µM (inactive) | 19.5 µM (inactive) | 23.1 µM (inactive) | 17.6 µM (inactive) | 27.7 µM (inactive) | 31.8 µM (inactive) | 21.9 µM (inactive) | > 100 µM (inactive) | 25 µM (inactive) | 83 µM (inactive) | 45.1 µM (inactive) | 14.8 µM (inactive)
O=C(O)c1oc(C(=O)O)c(C(=O)O)c1C(=O)O | > 100 µM (inactive) | > 100 µM (inactive) |  | > 100 µM | > 100 µM (inactive) | > 100 µM (inactive) | > 100 µM (inactive) | > 100 µM (inactive) |  | > 100 µM (inactive) | > 100 µM (inactive) | > 100 µM (inactive) | > 100 µM (inactive) | > 100 µM (inactive) |  | > 100 µM (inactive) | > 100 µM (inactive) | > 100 µM (inactive) | > 100 µM (inactive)
COc1cc(NCCC(=O)O)c2ncccc2c1 | > 100 µM (inactive) | > 100 µM (inactive) |  | > 100 µM | > 100 µM (inactive) |  | > 100 µM (inactive) | > 100 µM (inactive) | > 100 µM (inactive) | > 100 µM (inactive) | > 100 µM (inactive) | > 100 µM (inactive) | > 100 µM (inactive) | 38.8 µM (inactive) |  | > 100 µM (inactive) | > 100 µM (inactive) | > 100 µM (inactive) | > 100 µM (inactive)
O=[N+]([O-])c1cccc2c(/N=N/c3ccc4ccccc4c3O)c(O)cc(S(=O)(=O)O)c12 | 22.5 µM (inactive) | 74.6 µM (inactive) |  | 14.1 µM | 55.7 µM (inactive) | 55.6 µM (inactive) | 6.18 µM (inactive) | 21.6 µM (inactive) | 23.8 µM (inactive) |  | 21.1 µM (inactive) | 18.8 µM (inactive) | 44.3 µM (inactive) | 22.6 µM (inactive) | 76.2 µM (inactive) |  | 9.59 µM (inactive) | 18.2 µM (inactive) | 7.36 µM (inactive)
COC(=O)/C1=C/C=C\C[C@@]2(C)CC(c3ccoc3)OC(=O)[C@@H]2CC[C@H]1C (stereo partly drawn) | > 25 µM (inactive) | > 25 µM (inactive) | > 25 µM (inactive) | > 25 µM | > 25 µM (inactive) | > 25 µM (inactive) | > 25 µM (inactive) | > 25 µM (inactive) |  | > 25 µM (inactive) | > 25 µM (inactive) | > 25 µM (inactive) | > 25 µM (inactive) | > 25 µM (inactive) | > 25 µM (inactive) |  | > 25 µM (inactive) | > 25 µM (inactive) | 
COc1ccc(-c2c(C#N)c(O)n(C3OC(CO)C(O)C(O)C3O)c(=S)c2C#N)cc1 (stereo not drawn) | > 100 µM (inactive) | > 100 µM (inactive) |  | > 100 µM |  | > 100 µM (inactive) | > 100 µM (inactive) | > 100 µM (inactive) | > 100 µM (inactive) | > 100 µM (inactive) | > 100 µM (inactive) | > 100 µM (inactive) | > 100 µM (inactive) | > 100 µM (inactive) | > 100 µM (inactive) | > 100 µM (inactive) |  | > 100 µM (inactive) | > 100 µM (inactive)
Cn1c(=O)c2c(nc3n2CC(=O)N3CCCCl)n(C)c1=O | > 100 µM (inactive) | > 100 µM (inactive) | > 100 µM (inactive) | > 100 µM | > 100 µM (inactive) | > 100 µM (inactive) | > 100 µM (inactive) | > 100 µM (inactive) | > 100 µM (inactive) | > 100 µM (inactive) | > 100 µM (inactive) | > 100 µM (inactive) | > 100 µM (inactive) | > 100 µM (inactive) | > 100 µM (inactive) | > 100 µM (inactive) | > 100 µM (inactive) | > 100 µM (inactive) | 
